Calls of active or inactive are those of the source.
Tests used:
[1] = cells; type: functional, cell-based
[2] = cells; type: functional, cell-based; remark: listed apart in the source
[3] = A cytotoxicity screen of small molecule inhibitors of the PhoP region in Salmonella typhi identified in the primary screen. [Related pubchem assays: 1850, 1864, 1985 ]; type: functional
[4] = target: T1, DNA repair and recombination protein RAD54-like (Homo sapiens, UniProt Q92698); assay: inhibitors of human RAD54 branch migration, confirmation, biochemical, fluorescence, cherry-picked samples, dose series (AID 651657); type: functional
T1 sequence (Q92698 whole entry): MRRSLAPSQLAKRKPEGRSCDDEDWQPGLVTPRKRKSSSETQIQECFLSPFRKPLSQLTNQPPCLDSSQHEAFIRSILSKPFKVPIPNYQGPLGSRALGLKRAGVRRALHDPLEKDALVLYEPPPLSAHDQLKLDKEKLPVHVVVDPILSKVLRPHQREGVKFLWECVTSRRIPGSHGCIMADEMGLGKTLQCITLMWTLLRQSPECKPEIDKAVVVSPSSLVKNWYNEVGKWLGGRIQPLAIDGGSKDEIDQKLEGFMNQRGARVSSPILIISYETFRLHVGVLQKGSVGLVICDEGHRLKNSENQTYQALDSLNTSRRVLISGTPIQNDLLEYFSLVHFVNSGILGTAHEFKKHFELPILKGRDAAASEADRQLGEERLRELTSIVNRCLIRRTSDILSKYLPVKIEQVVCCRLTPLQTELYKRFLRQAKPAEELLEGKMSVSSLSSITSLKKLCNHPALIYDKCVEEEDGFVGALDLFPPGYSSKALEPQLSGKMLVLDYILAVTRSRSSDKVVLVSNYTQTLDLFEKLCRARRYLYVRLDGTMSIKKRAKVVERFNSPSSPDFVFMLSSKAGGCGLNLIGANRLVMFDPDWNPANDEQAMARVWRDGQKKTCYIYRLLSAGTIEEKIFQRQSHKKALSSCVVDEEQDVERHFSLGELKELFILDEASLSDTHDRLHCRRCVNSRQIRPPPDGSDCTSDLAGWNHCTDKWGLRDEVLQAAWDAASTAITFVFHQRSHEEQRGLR

[5] = system: HEK293; assay: inhibitors of LMP1-driven NF-kB reporter, dose response, cell-based, HEK293, luciferase, cherry-pick (AID 588343); type: functional; details: Homo sapiens
[6] = HEp-2 cell cytotoxicity, dose response, cytotoxicity control for RSV inhibitor project, HTS (AID 2410); type: functional; details: human respiratory syncytial virus
[7] = cells
[8] = target: Large T antigen (Simian virus 40, UniProt P03070); type: functional, Betapolyomavirus macacae;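 also: Confirmatory-stage PubChem screen for compounds that inhibit SV40 T antigen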
Chain of Large T antigen (P03070 whole entry): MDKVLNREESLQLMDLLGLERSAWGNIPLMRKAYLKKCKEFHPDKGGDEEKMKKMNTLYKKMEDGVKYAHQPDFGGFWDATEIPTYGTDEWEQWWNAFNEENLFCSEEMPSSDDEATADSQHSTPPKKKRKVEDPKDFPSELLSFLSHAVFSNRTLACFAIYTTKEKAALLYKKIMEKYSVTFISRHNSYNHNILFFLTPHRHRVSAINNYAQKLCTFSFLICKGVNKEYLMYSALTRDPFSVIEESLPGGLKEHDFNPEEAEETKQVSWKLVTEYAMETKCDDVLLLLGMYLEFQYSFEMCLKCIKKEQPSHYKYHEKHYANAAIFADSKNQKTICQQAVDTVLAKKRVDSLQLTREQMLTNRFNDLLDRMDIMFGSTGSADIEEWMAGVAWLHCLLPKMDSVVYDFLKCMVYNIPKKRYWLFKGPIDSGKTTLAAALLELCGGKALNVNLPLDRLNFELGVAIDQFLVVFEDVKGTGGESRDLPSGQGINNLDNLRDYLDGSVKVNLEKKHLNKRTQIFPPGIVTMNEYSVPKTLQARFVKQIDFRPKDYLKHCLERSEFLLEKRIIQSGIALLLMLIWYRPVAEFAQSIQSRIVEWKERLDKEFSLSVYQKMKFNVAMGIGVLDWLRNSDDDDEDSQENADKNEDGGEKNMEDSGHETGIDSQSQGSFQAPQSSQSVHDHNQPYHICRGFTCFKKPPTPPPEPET

[9] = Luminescence Cell-Based Dose Response HTS to Identify Inhibitors of 5'UTR Stem-Loop Driven Prion Protein mRNA Translation in H4 Neuroglioblastoma Cells. [Related pubchem assays: 1827 (Project Summary), 1813 (Primary HTS)]; type: functional
[10] = inhibitors of SNCA 5'UTR-driven reporter translation, confirmation, H4 neuroglioma cells, luminescence (AID 1988); type: functional, cell-based
[11] = growth suppression of PTEN-null colon cells, dose response, cell-based, HCT116 PTEN knockout (AID 1047); type: functional;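 also: HCT116 colon tumor cells with PTEN knocked out; cells exposed to compound for 60 hours before readout; potency for loss of cell viability measured by luminescence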
[12] = growth suppression of beta-catenin-knockout colon cells, dose response, cell-based, HCT116, human colon tumor (AID 1045); type: functional;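 also: HCT116 colon tumor cells with beta catenin knocked out; cells exposed to compound for 60 hours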
[13] = target: T2, Heat shock factor protein 1 (Mus musculus, UniProt P38532); assay: HSF1 potentiators in luciferase reporter cells, confirmation, cell-based, NIH3T3, luminescence, dose retest (AID 435004); type: functional;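 also: stress induced by proteasome inhibitor MG132 added 30 min after compound; luciferase reporter driven by HSF1 response element in NIH3T3 cells; actives raise luminescence as potentiators of the MG132 stress response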
T2 sequence (P38532 whole entry): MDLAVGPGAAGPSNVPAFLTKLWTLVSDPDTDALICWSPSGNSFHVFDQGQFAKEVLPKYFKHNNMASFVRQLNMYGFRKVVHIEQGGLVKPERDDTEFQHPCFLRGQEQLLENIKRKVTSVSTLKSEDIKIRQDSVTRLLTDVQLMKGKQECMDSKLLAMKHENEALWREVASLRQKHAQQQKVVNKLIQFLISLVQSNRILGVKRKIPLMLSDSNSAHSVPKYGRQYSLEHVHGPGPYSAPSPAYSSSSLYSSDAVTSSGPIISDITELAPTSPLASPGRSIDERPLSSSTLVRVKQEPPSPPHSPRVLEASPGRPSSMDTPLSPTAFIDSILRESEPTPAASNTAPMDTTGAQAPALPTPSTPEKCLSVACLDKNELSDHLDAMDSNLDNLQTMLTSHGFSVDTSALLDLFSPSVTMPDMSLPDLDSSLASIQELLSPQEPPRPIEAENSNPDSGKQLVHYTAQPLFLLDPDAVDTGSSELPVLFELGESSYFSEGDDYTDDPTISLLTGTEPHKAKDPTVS

[14] = target: T3, Protein skinhead-1 (Caenorhabditis elegans, UniProt P34707); type: functional
T3 sequence (P34707 whole entry): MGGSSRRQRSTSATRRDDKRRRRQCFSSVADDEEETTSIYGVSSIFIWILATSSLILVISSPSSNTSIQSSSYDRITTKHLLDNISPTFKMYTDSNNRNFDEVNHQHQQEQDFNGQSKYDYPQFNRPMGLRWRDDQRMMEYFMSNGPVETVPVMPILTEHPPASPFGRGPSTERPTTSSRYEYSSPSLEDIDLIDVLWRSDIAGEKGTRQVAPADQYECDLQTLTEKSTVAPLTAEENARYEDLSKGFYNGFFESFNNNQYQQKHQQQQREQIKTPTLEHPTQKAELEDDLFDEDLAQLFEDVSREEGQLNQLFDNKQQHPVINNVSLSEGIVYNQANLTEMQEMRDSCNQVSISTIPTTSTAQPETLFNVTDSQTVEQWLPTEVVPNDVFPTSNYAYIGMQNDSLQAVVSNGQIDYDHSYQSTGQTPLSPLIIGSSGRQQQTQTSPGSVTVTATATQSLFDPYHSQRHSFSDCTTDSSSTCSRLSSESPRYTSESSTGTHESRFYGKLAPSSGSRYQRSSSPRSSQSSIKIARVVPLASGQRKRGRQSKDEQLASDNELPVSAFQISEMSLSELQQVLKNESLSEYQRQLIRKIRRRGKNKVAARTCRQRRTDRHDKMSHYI

[15] = NIH-3T3 fibroblast cytotoxicity, dose response, cytotoxicity control, cell-based, fluorescence, Alamar Blue, secondary assay (AID 2327); type: functional;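 also: NIH-3T3 mouse fibroblasts cultured with fluconazole at 8 µg/mL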
[16] = inhibitors of firefly luciferase expression or activity, dose response, H4 neuroglioma cells, luminescence (AID 1990); type: functional, cell-based
[17] = system: Streptococcus sp. 'group A'; assay: growth inhibition of control SK(-) GAS strain, dose response, counter-screen for streptokinase expression inhibitor project, luminescence, kanamycin, BacTiterGlo, confirmation (AID 1900); type: functional, organism-based
[18] = target: T4, Streptokinase A (Streptococcus pyogenes serotype M1, UniProt P10520); assay: S. pyogenes streptokinase expression inhibitors, potency, dose response, plasminogen activation absorbance, OD405 (AID 1914); type: functional, Streptococcus pyogenes M1 GAS;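 also: secreted streptokinase activity via plasminogen activation per viability signal from cell pellet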
T4 sequence (P10520 whole entry): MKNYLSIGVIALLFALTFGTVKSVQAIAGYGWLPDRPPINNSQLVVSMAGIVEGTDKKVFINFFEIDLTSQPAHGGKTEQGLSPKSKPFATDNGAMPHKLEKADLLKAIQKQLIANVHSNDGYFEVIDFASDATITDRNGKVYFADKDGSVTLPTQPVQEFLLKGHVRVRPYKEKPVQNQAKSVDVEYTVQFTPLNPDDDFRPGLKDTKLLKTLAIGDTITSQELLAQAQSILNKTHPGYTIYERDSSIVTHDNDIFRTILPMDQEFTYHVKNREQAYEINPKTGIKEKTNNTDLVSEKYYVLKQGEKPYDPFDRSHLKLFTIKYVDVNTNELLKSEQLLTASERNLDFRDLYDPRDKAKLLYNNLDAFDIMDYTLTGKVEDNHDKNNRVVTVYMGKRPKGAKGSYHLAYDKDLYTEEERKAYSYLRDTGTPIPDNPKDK

[19] = system: Streptococcus; assay: Group A Streptococcus viability loss, dose response, counter-screen for streptokinase expression inhibitor project, luminescence, BacTiterGlo (AID 1915); type: functional, organism-based;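 also: potency for reduction of bacterial viability or growth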
[20] = target: Heat shock protein HSP 90-alpha (Homo sapiens, UniProt P07900); type: functional, organism-based
[21] = THP-1 cell cytotoxicity, dose response, cytotoxicity control for non-replicating M. tuberculosis project (AID 489025); type: functional
[22] = system: INS1; assay: beta cell apoptosis inhibitors, cytokine rescue, dose response, luminescence, retest (AID 449756); type: functional, cell-based; details: Rattus norvegicus;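 also: cell death triggered by IL-1 beta plus TNF-alpha plus IFN-gamma mixture; protective hits raise ATP signal compared with cytokine alone wells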
[23] = target: T5, RNA-binding protein pos-1 (Caenorhabditis elegans, UniProt G5EF15); assay: inhibitors of POS-1/mex-3 RNA binding, dose response, biochemical, fluorescence polarization (AID 1964);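 also: purified POS-1 fused to maltose binding protein made in E. coli; potency of compounds blocking POS-1 binding to fluorescent RNA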
T5 sequence (G5EF15 whole entry): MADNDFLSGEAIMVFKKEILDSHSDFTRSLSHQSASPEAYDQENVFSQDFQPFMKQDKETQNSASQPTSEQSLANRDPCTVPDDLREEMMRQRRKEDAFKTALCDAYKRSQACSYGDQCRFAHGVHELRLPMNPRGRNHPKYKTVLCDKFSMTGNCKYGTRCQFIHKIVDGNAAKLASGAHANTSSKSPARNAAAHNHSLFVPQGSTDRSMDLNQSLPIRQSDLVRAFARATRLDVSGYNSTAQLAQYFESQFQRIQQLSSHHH

[24] = inhibitors of HIV Env-driven cell fusion, dose response, cherry-pick (AID 652057); type: functional, cell-based
[25] = inhibitors of clade B AD8 Env fusion, dose response, cell-based, cherry-pick (AID 652062); type: functional;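 also: luciferase signal from cell-cell fusion driven by HIV-1 clade B AD8 Env; potency is for inhibitors of fusion seen as a drop in luminescence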
[26] = cells; type: functional

## COC(=O)C1=C(C)N(Cc2ccc(OC)cc2)C(=O)C1
[1]
  EC50: > 350 µM (not active)
[2]
  EC50: > 350 µM (not active)

## COc1ccc(Cn2c(=N)c(C(=O)NCC3CCCO3)cc3c(=O)n4ccccc4nc32)cc1 (stereo not drawn)
[3]
  EC50: > 50 µM (active)

## CCOC(=O)c1cc(-c2ccncc2)nc2c1c(C)nn2-c1ccccn1
[3]
  EC50: > 50 µM (active)
[4]
  AC50: 30.4 µM (active)

## CN(C1CCCCC1)S(=O)(=O)c1ccc(C(=O)N2CCN(c3nc4ccccc4s3)CC2)cc1
[5]
  AC50: 2.85 µM (active)

## COC(=O)C1=C(C)N(Cc2ccco2)C(=O)N[C@H]1c1cccc(C(F)(F)F)c1
[6]
  CC50: 25.6 µM (active)
[7]
  IC50: 1.47 µM (active)

## O=C(CSc1nnc(-c2ccccc2Cl)o1)N1CCOCC1
[1]
  EC50: > 350 µM (not active)
[2]
  EC50: > 350 µM (not active)

## O=C(N/N=C/c1ccc(O)c(O)c1)c1cccc(S(=O)(=O)N2CCCC2)c1
[8]
  IC50: 4.72 µM (active)

## CCn1nnc2cc(C(=O)NCCc3ccccc3F)ccc21
[9]
  EC50: 4.08 µM (active)
[10]
  EC50: 5.03 µM (active)
[5]
  AC50: 3.14 µM (active)

## Cc1ccc(S/C=C\C(=O)c2ccccc2)cc1
[11]
  EC50: 98.5 µM (active)
[12]
  EC50: 33.1 µM (active)
[13]
  EC50: 8.81 µM (active)
[14]
  IC50: 32.9 µM (active)

## COc1ccc(/C=C2/C(=O)N(Cc3ccco3)C(=O)N(C(C)C)C2=O)cc1
[8]
  IC50: 80.6 µM (active)

## O=c1cc(CN2CCN(Cc3ccccc3)CC2)c2ccc(O)c(O)c2o1
[15]
  EC50: > 160 µM (inactive)
[8]
  IC50: 4.91 µM (active)

## COc1ccc(S(=O)(=O)N2CCOC2CNC(=O)C(=O)NCc2ccc3c(c2)OCO3)cc1OC (stereo not drawn)
[1]
  EC50: > 350 µM (not active)
[2]
  EC50: > 350 µM (not active)

## NC(=O)c1c(NC(=O)CSc2nc(N)cc(O)n2)sc2c1CCCC2
[3]
  EC50: > 50 µM (active)

## CCc1nc(SCC(=O)N2c3ccccc3CC2C)c2c(C)c(C)sc2n1 (stereo not drawn)
[6]
  CC50: 5.39 µM (active)
[16]
  EC50: > 120 µM (not active)
[17]
  EC50: 13.8 µM (active)
[9]
  EC50: 18 µM (active)
[18]
  EC50: 57.8 µM (active)
[19]
  EC50: > 150 µM (not active)
[7]
  IC50: 3.55 µM (active)

## CN1C(=O)C(=C(Nc2ccc(F)cc2)c2ccccc2Cl)C(=O)N(C)C1=O
[20]
  AC50: 3.17 µM (active)

## Cc1cccc(NS(=O)(=O)c2ccc(C)c(C(=O)OCC(=O)Nc3cc(C)on3)c2)c1
[6]
  CC50: 23.9 µM (active)
[16]
  EC50: 41.1 µM (active)
[9]
  EC50: > 120 µM (not active)
[10]
  EC50: 28.1 µM (active)
[7]
  IC50: 30.8 µM (active)

## CC(=O)Oc1ccc(N(C(C)=O)S(=O)(=O)c2cccs2)c2ccccc12
[21]
  CC50: 26.1 µM (active)
[22]
  AC50: 8.83 µM (active)

## O=C(NNC(=O)c1cc(Cl)ccc1[N+](=O)[O-])c1csc(N2CCOCC2)n1
[23]
  EC50: > 300 µM (inconclusive)

## Cc1occc1C(=O)NC1CCCCCC1
[1]
  EC50: > 350 µM (not active)
[2]
  EC50: 73 µM (active)

## Cc1nc(C)c(-c2ccc(SCc3ccccc3F)nn2)s1
[3]
  EC50: > 50 µM (active)

## N=C(NOS(=O)(=O)c1ccccc1)c1cccnc1
[3]
  EC50: > 50 µM (active)

## CCc1nn2cc(-c3ccccc3)nc2s1
[5]
  AC50: 2.06 µM (active)

## CC(C)COC(=O)N(C)C[C@H]1OCc2ccccc2-c2c(n(C)c3ccccc23)C(=O)N([C@H](C)CO)C[C@@H]1C
[24]
  AC50: < 0.26 µM (active)
[25]
  AC50: 0.304 µM (active)

## O=[N+]([O-])c1ccc(CNc2cccc(Cl)c2)s1
[21]
  CC50: > 40 µM (active)
[26]
  IC50: 48.6 µM (active)

## N#Cc1c2ccc([N+](=O)[O-])cc2[n+]([O-])n1-c1ccccc1
[20]
  AC50: 2.86 µM (active)
[22]
  AC50: 3.15 µM (active)

## CN(C)c1ccc(NC(=O)/C=C/c2c(Cl)cccc2Cl)cc1
[6]
  CC50: 17.3 µM (active)
[7]
  IC50: 10.2 µM (active)

## O=C(N/N=C/c1cccnc1)c1ccc([N+](=O)[O-])cc1Cl
[3]
  EC50: > 50 µM (active)

## O=C(N/N=C/C(Br)=C/c1ccccc1)c1ccncc1
[21]
  CC50: > 40 µM (active)
[26]
  IC50: 0.61 µM (active)

## COc1cccc(C(=O)SC2=NCCS2)c1
[1]
  EC50: > 350 µM (not active)
[2]
  EC50: 55.8 µM (active)

Reference: ChEMBL document CHEMBL1201862, “PubChem BioAssay data set” (2004)
